Reference: patent US20070128217A1 (priority 2003, published 2007)

Experiments:
[1] = tested on: antibodies in sera from SARS patients (sera 1a, 1b, 2, 6, 37, 62, London, SARS-yellow, SARS-green); type: binding, human; set-up: Binding of serum 6 to linear peptides of protein X1 of SARS-CoV Urbani / Binding of serum 37 to linear peptides of protein X1 of SARS-CoV Urbani / Binding of serum 6 to looped/cyclic peptide (PEPSCAN-ELISA) / Binding of serum 37 to looped/cyclic peptide (PEPSCAN-ELISA) / Binding of serum 37 to looped/cyclic peptides of protein X1 of SARS-CoV Urbani / Binding of serum 6 to linear peptides of protein X2 / Binding of serum 37 to linear peptides of protein X2 / Binding of serum 37 to looped/cyclic peptides of protein X2 of SARS-CoV Urbani / Binding of serum 6 to linear peptides of protein M of SARS-CoV Urbani / Binding of serum 37 to linear peptides of protein M of SARS-CoV Urbani / Binding of serum 6 to looped/cyclic peptides of protein M of SARS-CoV Urbani / Binding of serum 37 to looped/cyclic peptides of protein M of SARS-CoV Urbani / Binding of serum 6 to linear peptides of protein X3 of SARS-CoV Urbani / Binding of serum 37 to linear peptides of protein X3 of SARS-CoV Urbani / Binding of serum 37 to looped/cyclic peptides of protein X3 of SARS-CoV Urbani / Binding of serum 6 to linear peptides of protein X4 of SARS-CoV Urbani / Binding of serum 37 to linear peptides of protein X4 of SARS-CoV Urbani / Binding of serum 37 to looped/cyclic peptides of protein X4 of SARS-CoV Urbani / Binding of serum 6 to linear peptides of protein X5 of SARS-CoV Urbani / Binding of serum 37 to linear peptides of protein X5 of SARS-CoV Urbani / Binding of serum 37 to looped/cyclic peptides of protein X5 of SARS-CoV Urbani / Binding of serum 6 to linear peptides of protein N of SARS-CoV Urbani / Binding of serum 37 to linear peptides of protein N of SARS-CoV Urbani / Binding of serum 6 to linear peptide (PEPSCAN-ELISA) / Binding of serum 1a to looped/cyclic peptides of protein N of SARS-CoV Urbani / Binding of serum 1b to looped/cyclic peptides of protein N of SARS-CoV Urbani / Binding of serum 2 to looped/cyclic peptides of protein N of SARS-CoV Urbani / Binding of serum 6 to looped/cyclic peptides of protein N of SARS-CoV Urbani / Binding of serum 37 to looped/cyclic peptides of protein N of SARS-CoV Urbani / Binding of serum 62 to looped/cyclic peptides of protein N of SARS-CoV Urbani / Binding of serum London to looped/cyclic peptides of protein N of SARS-CoV Urbani / Binding of serum SARS-green to looped/cyclic peptides of protein N of SARS-CoV Urbani: unit not given here
[2] = tested on: rabbit serum obtained by immunizing a rabbit with the SARS-CoV strain Frankfurt 1; type: binding; set-up: Binding of a rabbit serum to linear peptides / Binding of a rabbit serum to looped peptides / Rabbit serum linear peptides / Rabbit serum looped peptides / Binding of a rabbit serum to linear peptides of protein N of SARS-CoV Urbani (Rabbit serum linear peptides) / Binding of a rabbit serum to looped/cyclic peptides of protein N of SARS-CoV Urbani (Rabbit serum looped peptides): unit not given here
[3] = tested on: control sera (pooled serum of ten healthy LUMC hospital workers; commercial negative donor pooled serum from the Dutch bloodbank); type: binding, human; set-up: Binding of Control serum LUMC to linear peptides / Binding of Control serum Blood-bank to linear peptides / Binding of Control serum LUMC to looped peptides / Binding of Control Serum Blood-Bank to Looped peptides / Binding of Control serum LUMC to linear peptides of the protein M of SARS-CoV Urbani / Binding of Control serum Blood-bank to linear peptides of the protein M of SARS-CoV Urbani / Binding of Control serum LUMC to looped peptides of the protein M of SARS-CoV Urbani / Binding of Control Serum Blood-Bank to Looped peptides of the protein M of SARS-CoV Urbani: unit not given here

Sequence | Binding of serum 1a to linear peptides of protein X5 of SARS-CoV Urbani [1] | Binding of serum 1a to looped/cyclic peptides of protein X5 of SARS-CoV Urbani [1] | Binding of serum 1b to linear peptides of protein X5 of SARS-CoV Urbani [1] | Binding of serum 1b to looped/cyclic peptides of protein X5 of SARS-CoV Urbani [1] | Binding of serum 2 to linear peptides of protein X5 of SARS-CoV Urbani [1] | Binding of serum 2 to looped/cyclic peptides of protein X5 of SARS-CoV Urbani [1] | Binding of serum 6 to linear peptides of protein X5 of SARS-CoV Urbani [1] | Binding of serum 6 to looped/cyclic peptides of protein X5 of SARS-CoV Urbani [1] | Binding of serum 37 to linear peptides of protein X5 of SARS-CoV Urbani [1] | Binding of serum 37 to looped/cyclic peptides of protein X5 of SARS-CoV Urbani [1] | Binding of serum 62 to linear peptides of protein X5 of SARS-CoV Urbani [1] | Binding of serum 62 to looped/cyclic peptides of protein X5 of SARS-CoV Urbani [1] | Binding of serum London to linear peptides of protein X5 of SARS-CoV Urbani [1] | Binding of serum London to looped/cyclic peptides of protein X5 of SARS-CoV Urbani [1] | Rabbit serum linear peptides [2] | Rabbit serum looped peptides [2] | Binding of Control Serum Blood-Bank to Looped peptides [3] | Binding of Control serum Blood-bank to linear peptides [3] | Binding of Control serum LUMC to linear peptides [3] | Binding of Control serum LUMC to looped peptides [3] | further results
LGKVLPFHRWHTMVQ | 0.7 | 0.6 | 0.4 | 0.3 | 0.6 | 0.2 | 0.5 | 0.3 | 0.6 | 0.5 | 0.6 | 0.3 | 0.6 | 0.2 | 0.5 | 0.3 | 0.4 | 0.8 | 0.5 | 0.4 | Binding of serum SARS-green to linear peptides of protein X5 of SARS-CoV Urbani [1]: 0.4; Binding of serum SARS-green to looped/cyclic peptides of protein X5 of SARS-CoV Urbani [1]: 0.2; Binding of serum SARS-yellow to linear peptides of protein X5 of SARS-CoV Urbani [1]: 0.2; Binding of serum SARS-yellow to looped/cyclic peptides of protein X5 of SARS-CoV Urbani [1]: 0.2
RYNTRGNTYSTAWLC | 0.8 | 0.5 | 0.4 | 0.0 | 0.5 | 0.3 | 0.9 | 0.1 | 0.4 | 0.0 | 0.7 | 0.2 | 1.0 | 0.2 | 0.7 | 0.0 | 0.0 | 0.7 | 0.3 | 0.1 | Binding of serum SARS-green to linear peptides of protein X5 of SARS-CoV Urbani [1]: 0.6; Binding of serum SARS-green to looped/cyclic peptides of protein X5 of SARS-CoV Urbani [1]: 0.1; Binding of serum SARS-yellow to linear peptides of protein X5 of SARS-CoV Urbani [1]: 0.2; Binding of serum SARS-yellow to looped/cyclic peptides of protein X5 of SARS-CoV Urbani [1]: 0.6
GIENATFFIFNKLVK | – | – | – | – | – | – | – | – | – | – | – | – | – | – | – | – | 0.5 | 0.6 | 0.5 | 0.5 | Binding of serum 1a to linear peptides of protein X1 of SARS-CoV Urbani [1]: 0.6; Binding of serum 1a to looped/cyclic peptides of protein X1 of SARS-CoV Urbani [1]: 0.6; Binding of serum 1b to linear peptides of protein X1 of SARS-CoV Urbani [1]: 0.5; Binding of serum 1b to looped/cyclic peptides of protein X1 of SARS-CoV Urbani [1]: 0.4; Binding of serum 2 to linear peptides of protein X1 of SARS-CoV Urbani [1]: 0.5; Binding of serum 2 to looped/cyclic peptides of protein X1 of SARS-CoV Urbani [1]: 0.5; Binding of serum 6 to linear peptides of protein X1 of SARS-CoV Urbani [1]: 0.5; Binding of serum 6 to looped/cyclic peptides of protein X1 of SARS-CoV Urbani [1]: 0.5; Binding of serum 37 to linear peptides of protein X1 of SARS-CoV Urbani [1]: 0.6; Binding of serum 37 to looped/cyclic peptides of protein X1 of SARS-CoV Urbani [1]: 0.6; Binding of serum 62 to linear peptides of protein X1 of SARS-CoV Urbani [1]: 0.6; Binding of serum 62 to looped/cyclic peptides of protein X1 of SARS-CoV Urbani [1]: 0.6; Binding of serum London to linear peptides of protein X1 of SARS-CoV Urbani [1]: 0.3; Binding of serum London to looped/cyclic peptides of protein X1 of SARS-CoV Urbani [1]: 0.2; Binding of serum SARS-green to linear peptides of protein X1 of SARS-CoV Urbani [1]: 0.2; Binding of serum SARS-green to looped/cyclic peptides of protein X1 of SARS-CoV Urbani [1]: 0.2; Binding of serum SARS-yellow to linear peptides of protein X1 of SARS-CoV Urbani [1]: 0.5; Binding of serum SARS-yellow to looped/cyclic peptides of protein X1 of SARS-CoV Urbani [1]: 0.5; Binding of a rabbit serum to linear peptides [2]: 0.1; Binding of a rabbit serum to looped peptides [2]: 0.6
VASFRLFARTRSMWS | – | – | – | – | – | – | – | – | – | – | – | – | – | – | 0.8 | 0.4 | – | – | – | – | Binding of serum 1a to linear peptides of protein M of SARS-CoV Urbani [1]: 0.7; Binding of serum 1b to linear peptides of protein M of SARS-CoV Urbani [1]: 0.5; Binding of serum 2 to linear peptides of protein M of SARS-CoV Urbani [1]: 0.5; Binding of serum 6 to linear peptides of protein M of SARS-CoV Urbani [1]: 0.3; Binding of serum 37 to linear peptides of protein M of SARS-CoV Urbani [1]: 0.7; Binding of serum 62 to linear peptides of protein M of SARS-CoV Urbani [1]: 0.8; Binding of serum London to linear peptides of protein M of SARS-CoV Urbani [1]: 0.3; Binding of serum SARS-green to linear peptides of protein M of SARS-CoV Urbani [1]: 0.3; Binding of serum SARS-yellow to linear peptides of protein M of SARS-CoV Urbani [1]: 0.0; Recognition of the peptide by sera of SARS-CoV infected individuals, and form (linear, looped/cyclic) in which it is recognized [1]: recognized in looped/cyclic form; Binding of Control Serum Blood-Bank to Looped peptides of the protein M of SARS-CoV Urbani [3]: 0.8; Binding of Control serum Blood-bank to linear peptides of the protein M of SARS-CoV Urbani [3]: 0.7; Binding of Control serum LUMC to linear peptides of the protein M of SARS-CoV Urbani [3]: 0.4; Binding of Control serum LUMC to looped peptides of the protein M of SARS-CoV Urbani [3]: 0.6
